Experiments:
Assay type in all cases: in vivo
[1] = tested on: ducksalad (Heteranthera limosa); assay: Test B flooded paddy test plant response
Outline: (§1)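 Step one: raise plants to 2 leaves. Step two: flood pots 3 cm over the soil and apply compound into the water, keeping this depth. Step three: after 13–15 greenhouse days, score visually versus controls, 0–100, where 100 means complete control.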

[2] = tested on: rice (Oryza sativa); assay: Test B flooded paddy test plant response
Outline: as §1

[3] = tested on: umbrella sedge (Cyperus difformis); assay: Test B flooded paddy test plant response
Outline: as §1

[4] = tested on: Italian ryegrass (Lolium multiflorum); assay: Test C pre-/postemergence plant response; conditions: Preemergence
Outline: (§2)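 Pre- and postemergence treatment, visual 0–100 rating vs controls at 15–25 days.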

[5] = tested on: annual bluegrass (Poa annua); assay: Test C pre-/postemergence plant response; conditions: Preemergence
Outline: as §2

[6] = tested on: blackgrass (Alopecurus myosuroides); assay: Test C pre-/postemergence plant response; conditions: Preemergence
Outline: as §2

[7] = tested on: canarygrass (Phalaris minor); assay: Test C pre-/postemergence plant response; conditions: Preemergence
Outline: as §2

[8] = tested on: downy bromegrass (Bromus tectorum); assay: Test C pre-/postemergence plant response; conditions: Preemergence
Outline: as §2

[9] = tested on: green foxtail (Setaria viridis); assay: Test C pre-/postemergence plant response; conditions: Preemergence
Outline: as §2

[10] = tested on: pigweed (Amaranthus retroflexus); assay: Test C pre-/postemergence plant response; conditions: Preemergence
Outline: as §2

[11] = tested on: spring barley (Hordeum vulgare); assay: Test C pre-/postemergence plant response; conditions: Preemergence
Outline: as §2

[12] = tested on: spring wheat (Triticum aestivum); assay: Test C pre-/postemergence plant response; conditions: Preemergence
Outline: as §2

[13] = tested on: wild mustard (Sinapis arvensis); assay: Test C pre-/postemergence plant response; conditions: Preemergence
Outline: as §2

[14] = tested on: wild oat (Avena fatua); assay: Test C pre-/postemergence plant response; conditions: Preemergence
Outline: as §2

[15] = tested on: windgrass (Apera spica-venti); assay: Test C pre-/postemergence plant response; conditions: Preemergence
Outline: as §2

[16] = tested on: winter barley (Hordeum vulgare); assay: Test C pre-/postemergence plant response; conditions: Preemergence
Outline: as §2

[17] = tested on: winter wheat (Triticum aestivum); assay: Test C pre-/postemergence plant response; conditions: Preemergence
Outline: as §2

[18] = Flood (flooded paddy test), 62 g ai/ha, scale 0 to 100, 0 no effect, 100 complete control
[19] = Flood (flooded paddy test), 125 g ai/ha, scale 0 to 100, 0 no effect, 100 complete control
[20] = Flood (flooded paddy test), 250 g ai/ha, scale 0 to 100, 0 no effect, 100 complete control
[21] = Flood, 31 g ai/ha, scale 0 to 100
[22] = 8 g ai/ha, scale 0 to 100 (0 no effect, 100 complete control)
[23] = 16 g ai/ha, scale 0 to 100 (0 no effect, 100 complete control)
[24] = 31 g ai/ha, scale 0 to 100 (0 no effect, 100 complete control)
[25] = 62 g ai/ha, scale 0 to 100, 0 no effect, 100 complete control

CCc1cc(-c2ccc(Cl)cc2)nn1-c1c(OC(=O)OC(C)C)cnn(C)c1=O [Compound 41]
Plant response rating, Ducksalad [1, 18]: 0
Plant response rating, Ducksalad [1, 19]: 40
Plant response rating, Ducksalad [1, 20]: 70
Plant response rating, Ducksalad [1, 21]: 0
Plant response rating, Rice [2, 18]: 20
Plant response rating, Rice [2, 19]: 50
Plant response rating, Rice [2, 20]: 80
Plant response rating, Rice [2, 21]: 15
Plant response rating, Sedge, Umbrella [3, 18]: 0
Plant response rating, Sedge, Umbrella [3, 19]: 0
Plant response rating, Sedge, Umbrella [3, 20]: 85
Plant response rating, Sedge, Umbrella [3, 21]: 0
Plant response rating, Ryegrass, Italian [4, 22]: 100
Plant response rating, Ryegrass, Italian [4, 23]: 100
Plant response rating, Ryegrass, Italian [4, 24]: 100
Plant response rating, Ryegrass, Italian [4, 25]: 100
Plant response rating, Bluegrass [5, 22]: 0
Plant response rating, Bluegrass [5, 23]: 0
Plant response rating, Blackgrass [6, 22]: 100
Plant response rating, Blackgrass [6, 23]: 100
Plant response rating, Blackgrass [6, 24]: 100
Plant response rating, Blackgrass [6, 25]: 100
Plant response rating, Canarygrass [7, 22]: 50
Plant response rating, Canarygrass [7, 23]: 80
Plant response rating, Canarygrass [7, 24]: 98
Plant response rating, Canarygrass [7, 25]: 100
Plant response rating, Bromegrass, Downy [8, 22]: 0
Plant response rating, Bromegrass, Downy [8, 23]: 50
Plant response rating, Bromegrass, Downy [8, 24]: 50
Plant response rating, Bromegrass, Downy [8, 25]: 80
Plant response rating, Foxtail, Green [9, 22]: 98
Plant response rating, Foxtail, Green [9, 23]: 100
Plant response rating, Foxtail, Green [9, 24]: 100
Plant response rating, Foxtail, Green [9, 25]: 100
Plant response rating, Pigweed [10, 22]: 0
Plant response rating, Pigweed [10, 23]: 0
Plant response rating, Pigweed [10, 24]: 0
Plant response rating, Pigweed [10, 25]: 0
Plant response rating, Barley, Spring [11, 22]: 0
Plant response rating, Barley, Spring [11, 23]: 65
Plant response rating, Barley, Spring [11, 24]: 75
Plant response rating, Barley, Spring [11, 25]: 90
Plant response rating, Wheat, Spring [12, 22]: 0
Plant response rating, Wheat, Spring [12, 23]: 50
Plant response rating, Wheat, Spring [12, 24]: 75
Plant response rating, Wheat, Spring [12, 25]: 95
Plant response rating, Mustard, Wild [13, 22]: 0
Plant response rating, Mustard, Wild [13, 24]: 0
Plant response rating, Mustard, Wild [13, 25]: 0
Plant response rating, Oat, Wild [14, 22]: 65
Plant response rating, Oat, Wild [14, 23]: 75
Plant response rating, Oat, Wild [14, 24]: 95
Plant response rating, Oat, Wild [14, 25]: 95
Plant response rating, Windgrass [15, 22]: 65
Plant response rating, Windgrass [15, 23]: 98
Plant response rating, Windgrass [15, 24]: 100
Plant response rating, Windgrass [15, 25]: 100
Plant response rating, Barley, Winter [16, 22]: 10
Plant response rating, Barley, Winter [16, 23]: 25
Plant response rating, Barley, Winter [16, 24]: 70
Plant response rating, Barley, Winter [16, 25]: 80
Plant response rating, Wheat, Winter [17, 22]: 0
Plant response rating, Wheat, Winter [17, 23]: 40
Plant response rating, Wheat, Winter [17, 24]: 60
Plant response rating, Wheat, Winter [17, 25]: 98

Cc1cc(-c2ccc(Cl)cc2)nn1-c1c(OC(=O)c2ccccc2)cnn(C)c1=O [Compound 48]
Plant response rating, Ducksalad [1, 18]: 0
Plant response rating, Ducksalad [1, 19]: 0
Plant response rating, Ducksalad [1, 20]: 30
Plant response rating, Ducksalad [1, 21]: 0
Plant response rating, Rice [2, 18]: 0
Plant response rating, Rice [2, 19]: 0
Plant response rating, Rice [2, 20]: 0
Plant response rating, Rice [2, 21]: 0
Plant response rating, Sedge, Umbrella [3, 18]: 0
Plant response rating, Sedge, Umbrella [3, 19]: 0
Plant response rating, Sedge, Umbrella [3, 20]: 50
Plant response rating, Sedge, Umbrella [3, 21]: 0
Plant response rating, Ryegrass, Italian [4, 22]: 40
Plant response rating, Ryegrass, Italian [4, 23]: 40
Plant response rating, Ryegrass, Italian [4, 24]: 90
Plant response rating, Ryegrass, Italian [4, 25]: 100
Plant response rating, Bluegrass [5, 22]: 0
Plant response rating, Bluegrass [5, 23]: 0
Plant response rating, Bluegrass [5, 24]: 0
Plant response rating, Bluegrass [5, 25]: 0
Plant response rating, Blackgrass [6, 22]: 35
Plant response rating, Blackgrass [6, 23]: 50
Plant response rating, Blackgrass [6, 24]: 65
Plant response rating, Blackgrass [6, 25]: 98
Plant response rating, Canarygrass [7, 22]: 0
Plant response rating, Canarygrass [7, 23]: 0
Plant response rating, Canarygrass [7, 24]: 85
Plant response rating, Canarygrass [7, 25]: 95
Plant response rating, Bromegrass, Downy [8, 22]: 0
Plant response rating, Bromegrass, Downy [8, 23]: 0
Plant response rating, Bromegrass, Downy [8, 24]: 0
Plant response rating, Bromegrass, Downy [8, 25]: 40
Plant response rating, Foxtail, Green [9, 22]: 35
Plant response rating, Foxtail, Green [9, 23]: 95
Plant response rating, Foxtail, Green [9, 24]: 100
Plant response rating, Foxtail, Green [9, 25]: 100
Plant response rating, Pigweed [10, 22]: 0
Plant response rating, Pigweed [10, 23]: 0
Plant response rating, Pigweed [10, 24]: 0
Plant response rating, Pigweed [10, 25]: 0
Plant response rating, Barley, Spring [11, 22]: 0
Plant response rating, Barley, Spring [11, 23]: 15
Plant response rating, Barley, Spring [11, 24]: 30
Plant response rating, Barley, Spring [11, 25]: 80
Plant response rating, Wheat, Spring [12, 22]: 0
Plant response rating, Wheat, Spring [12, 23]: 35
Plant response rating, Wheat, Spring [12, 24]: 60
Plant response rating, Wheat, Spring [12, 25]: 75
Plant response rating, Mustard, Wild [13, 24]: 0
Plant response rating, Mustard, Wild [13, 25]: 0
Plant response rating, Oat, Wild [14, 22]: 0
Plant response rating, Oat, Wild [14, 23]: 0
Plant response rating, Oat, Wild [14, 24]: 50
Plant response rating, Oat, Wild [14, 25]: 70
Plant response rating, Windgrass [15, 22]: 0
Plant response rating, Windgrass [15, 23]: 0
Plant response rating, Windgrass [15, 24]: 35
Plant response rating, Windgrass [15, 25]: 80
Plant response rating, Barley, Winter [16, 22]: 0
Plant response rating, Barley, Winter [16, 23]: 0
Plant response rating, Barley, Winter [16, 24]: 0
Plant response rating, Barley, Winter [16, 25]: 70
Plant response rating, Wheat, Winter [17, 22]: 0
Plant response rating, Wheat, Winter [17, 23]: 0
Plant response rating, Wheat, Winter [17, 24]: 20
Plant response rating, Wheat, Winter [17, 25]: 70

From patent US20100267561A1, “HERBICIDAL PYRIDAZINONE DERIVATIVES” (priority 2007, published 2010)
